Laboratory results reported in paper PMC8333053, “Synthesis and biological screening of new thiadiazolopyrimidine-based polycyclic compounds” (Scientific Reports, 2021).

What was measured:
[1] = MTT cytotoxicity assay on normal cells; type: cell-based; conditions: human, WI38 normal fibroblast cells
Experimental: (§1) The cytotoxicity of the prepared tri-and tetra-cyclic thiadiazolopyrimidine compounds were examined toward various cancer cell lines, such as liver and breast cancer (MCF-7), prostate cancer (PC3), laryngeal carcinoma (Hep-2), carcinoma (HepG2), and standard normal fibroblast cells (WI38) using the MTT assay[33] at the National Research Centre (Egypt). The cytotoxicity (Table 3) toward 50% inhibition of the cell viability (IC50 values) was assessed using 5-fluorouracil (5-Fu) as the standard anticancer drug.
(§2) The synthesized compounds were subjected to the MTT cytotoxicity assay on the basis of the cited literature.
(§3) MTT cytotoxicity assay: The technical method of MTT assay depends on the reduction of yellow 3-(4,5-methyl-2-thiazolyl)-2,5-diphenyl-2H-tetrazolium bromide (MTT) into purple formazan product, mainly by mitochondrial reductase activity inside the living cells. The cells used in cytotoxicity assay were cultured in RPMI 1640 medium supplemented with 10% fetal calf serum. Cells suspended in the medium (2×10^4 cells/mL) were plated in 96-well culture plates and incubated at 37 °C in a 5% CO2 incubator for 12 hours. The tested sample (2 μL) was added to the cells (2×10^4) in 96-well plates and cultured at 37 °C for 3 days. The cultured cells were mixed with 20 μL of MTT solution and incubated for 4 hours at 37 °C. The supernatant was carefully removed from each well, the formazan crystals were dissolved after addition of DMSO (100 μL) for each well to form the cellular reduction of MTT. After mixing with a mechanical plate mixer, the absorbance of each well was measured by a microplate reader using a test wavelength of 570 nm. The results were expressed as the IC50 values, which inducing 50% inhibition of cell growth of the treated cells when compared to the growth of control cells.

PC3 = assay: MTT cytotoxicity assay; type: cell-based; conditions: Homo sapiens, PC-3, 72 h, 3 days
Experimental: as §1, §2, §3

MCF-7 = assay: MTT cytotoxicity assay; type: cell-based; conditions: Homo sapiens, MCF7, 72 h, 3 days
Experimental: as §1, §2, §3

HepG2 = assay: MTT cytotoxicity assay; type: cell-based; conditions: Homo sapiens, HepG2, 72 h, 3 days
Experimental: as §1, §2, §3

Hep-2 = assay: MTT cytotoxicity assay; type: cell-based; conditions: Homo sapiens, HEp-2, 72 h, 3 days
Experimental: as §1, §2, §3

Compound | melting point | IC50 at 3 days [1] | IC50 (PC3) | IC50 (MCF-7) | IC50 (HepG2) | IC50 (Hep-2)
Nc1c2c(=O)nc3scnn3c2nc2nnnn12 [Compound 11, 6-Amino-5H-[1,3,4]thiadiazolo[2′,3′:2,3]pyrimido[4,5-d]tetrazolo[1,5-a]pyrimidin-5-one] | 274 to 275 °C | 20.2 ± 0.39 µM | 38.1 ± 0.49 µM | 31.8 ± 0.67 µM | 42.2 ± 1.17 µM | 38.8 ± 0.74 µM
CC1=C(C#N)C2C(=C(N)O1)C(=O)N=C1SC=NN12 (stereo not shown) [Compound 9a, 6-Amino-9-cyano-8-methyl-5-oxo-5H,9aH-pyrano[3,4-e][1,3,4]thiadiazolo[3,2-a]pyrimidine] | 264 to 265 °C | 36.12 ± 0.28 µM | 46.4 ± 1.07 µM | 22.7 ± 0.29 µM | 33.2 ± 0.36 µM | 20 ± 0.24 µM
CC1=C(C(=O)c2ccccc2)C2C(=C(N)O1)C(=O)N=C1SC=NN12 (stereo not shown) [Compound 8b, 6-Amino-9-benzoyl-8-methyl-5H,9aH-pyrano[3,4-e][1,3,4]thiadiazolo[3,2-a]pyrimidin-5-one] | 239 to 241 °C | 42.8 ± 1.06 µM | 30.6 ± 0.57 µM | 14.7 ± 0.16 µM | 21.62 ± 0.14 µM | 14.7 ± 0.43 µM
N#CC1=C(c2ccccc2)OC(N)=C2C(=O)N=C3SC=NN3C12 (stereo not shown) [Compound 9b, 6-Amino-9-cyano-5-oxo-8-phenyl-5H,9aH-pyrano[3,4-e][1,3,4]thiadiazolo[3,2-a]pyrimidine] | 258 to 260 °C | 48.2 ± 1.47 µM | 38.4 ± 0.89 µM | 12.8 ± 0.26 µM | 26.78 ± 0.18 µM | 11.7 ± 0.36 µM
Cc1nn(-c2ccccc2)c2c1C1C(=C(N)O2)C(=O)N=C2SC=NN21 (stereo not shown) [Compound 10b, 6-Amino-10-methyl-8-phenyl-8,10b-dihydro-5H-pyrazolo[4′,3′:5,6]pyrano[3,4-e][1,3,4]thiadiazolo[3,2-a]pyrimidin-5-one] | 266 to 267 °C | 25.4 ± 0.62 µM | 27.3 ± 0.53 µM | 27.4 ± 0.49 µM | 37.6 ± 1.26 µM | 28.8 ± 1.8 µM
Cc1n[nH]c2c1C1C(=C(N)O2)C(=O)N=C2SC=NN21 (stereo not shown) [Compound 10a, 6-Amino-10-methyl-8,10b-dihydro-5H-pyrazolo[4′,3′:5,6]pyrano[3,4-e][1,3,4]thiadiazolo[3,2-a]pyrimidin-5-one] | – | 23.3 ± 0.6 µM | 40.11 ± 0.36 µM | 24.2 ± 0.52 µM | 42 ± 1.24 µM | 34 ± 0.46 µM
COc1ccc(N=Nc2c(N)nn3c(N)c4c(=O)nc5scnn5c4nc23)cc1 [Compound 16b, 6,9-Diamino-10-(4-methoxyphenylazo)-5H-pyrazolo[1′,5′:1,2]pyrimido[5,4-e][1,3,4]thiadiazolo[3,2-a]pyrimidin-5-one] | > 320 °C | 62.3 ± 3.03 µM | 47.9 ± 1.48 µM | 5.69 ± 0.39 µM | 42.3 ± 0.75 µM | 38.2 ± 0.57 µM
COc1ccc(N=Nc2c(O)nn3c(N)c4c(=O)nc5scnn5c4nc23)cc1 [Compound 17b, 6-Amino-9-hydroxy-10-(4-methoxyphenylazo)-5H-pyrazolo[1′,5′:1,2]pyrimido[5,4-e][1,3,4]thiadiazolo[3,2-a]pyrimidin-5-one] | 280 to 281 °C | 58.4 ± 2.29 µM | 36.8 ± 0.43 µM | 8.84 ± 0.17 µM | 33.54 ± 0.25 µM | 19 ± 0.4 µM
CC(=O)C1=C(C)OC(N)=C2C(=O)N=C3SC=NN3C12 (stereo not shown) [Compound 8a, 9-Acetyl-6-amino-8-methyl-5H,9aH-pyrano[3,4-e][1,3,4]thiadiazolo[3,2-a]pyrimidin-5-one] | – | 27.5 ± 0.6 µM | 34.4 ± 0.64 µM | 33.42 ± 0.23 µM | 37.12 ± 0.23 µM | 22.61 ± 0.21 µM
N#Cc1c(N)nc(N)c2c(=O)nc3scnn3c12 [Compound 6, 6,8-Diamino-9-cyano-5-oxo-5H-pyrido[3,4-e][1,3,4]thiadiazolo[3,2-a]pyrimidine] | 302 to 303 °C | 14.1 ± 0.36 µM | 66.3 ± 2.49 µM | 49.6 ± 1.25 µM | 62.2 ± 1.07 µM | 57.6 ± 1.72 µM
N#Cc1cn2ncsc2nc1=O [Compound 3, 6-cyano-7-oxo-7H-[1,3,4]thiadiazolo[3,2-a]pyrimidine] | 264 to 265 °C | 7.82 ± 1.33 µM | 92.8 ± 3.48 µM | 78 ± 1.37 µM | 82.3 ± 2.19 µM | 87.5 ± 2.35 µM
CCOC(=O)c1c(N)nc(N)c2c(=O)nc3scnn3c12 [Compound 7, Ethyl 6,8-diamino-5-oxo-5H-pyrido[3,4-e][1,3,4]thiadiazolo[3,2-a]pyrimidine-9-carboxylate] | 278 to 280 °C | 43.8 ± 0.52 µM | 61.8 ± 1.35 µM | 39.8 ± 0.68 µM | 36.73 ± 0.17 µM | 34.2 ± 0.93 µM
Cc1cc2nc3c(c(N)n2n1)c(=O)nc1scnn13 [Compound 13, 6-Amino-9-methyl-5H-pyrazolo[1′,5′:1,2]pyrimido[5,4-e][1,3,4]thiadiazolo[3,2-a]pyrimidin-5-one] | 304 to 306 °C | 44.4 ± 1.24 µM | 35.6 ± 0.88 µM | 57.6 ± 1.4 µM | 28.6 ± 0.41 µM | 30.2 ± 0.59 µM
Cc1ccc(N=Nc2c(O)nn3c(N)c4c(=O)nc5scnn5c4nc23)cc1 [Compound 17a, 6-Amino-9-hydroxy-10-(4-methylphenylazo)-5H-pyrazolo[1′,5′:1,2]pyrimido[5,4-e][1,3,4]thiadiazolo[3,2-a]pyrimidin-5-one] | 264 to 265 °C | 57.9 ± 1.18 µM | 39.4 ± 2.01 µM | 9.36 ± 0.23 µM | 38.27 ± 0.17 µM | 29.58 ± 0.15 µM
Nc1n[nH]c2c1c(=O)nc1scnn12 [Compound 4, 3-Aminopyrazolo[4,3-e][1,3,4]thiadiazolo[3,2-a]pyrimidin-4(1H)-one] | 281 to 282 °C | 9.35 ± 0.21 µM | 72.3 ± 2.18 µM | 61.2 ± 1.11 µM | 15.4 ± 0.45 µM | 78.4 ± 2.2 µM
Nc1nn(-c2ccccc2)c2c1c(=O)nc1scnn12 [Compound 5, 3-Amino-1-phenylpyrazolo[4,3-e][1,3,4]thiadiazolo[3,2-a]pyrimidin-4(1H)-one] | 254 to 255 °C | 10.9 ± 0.83 µM | 61.8 ± 1.68 µM | 54.8 ± 1.48 µM | 19.2 ± 0.52 µM | 61.2 ± 1.51 µM
Cc1ccc(N=Nc2c(N)nn3c(N)c4c(=O)nc5scnn5c4nc23)cc1 [Compound 16a, 6,9-Diamino-10-(4-methylphenylazo)-5H-pyrazolo[1′,5′:1,2]pyrimido[5,4-e][1,3,4]thiadiazolo[3,2-a]pyrimidin-5-one] | > 320 °C | 60.1 ± 2.41 µM | 44.2 ± 0.94 µM | 7.53 ± 0.08 µM | 37.6 ± 1.26 µM | 32.7 ± 0.36 µM
Nc1c2c(=O)nc3scnn3c2nc2nncn12 [Compound 12, 6-Amino-5H-[1,2,4]triazolo[4′,3′:1,2]pyrimido[5,4-e][1,3,4]thiadiazolo[3,2-a]pyrimidin-5-one] | 290 to 291 °C | 17.7 ± 0.71 µM | 47.4 ± 0.89 µM | 36.92 ± 0.29 µM | 44.3 ± 1.35 µM | 34.1 ± 0.97 µM
